Measured values as given in patent US9937145B2, “Sulfamate derivative compound for use in preventing or treating epilepsy” (Bio-Pharm Solutions Co., Ltd., priority 2013, dated 2018).
Where two headings read alike, the source gives them in different places. Marks after values point to notes of the source that are not given here.

Experiments:
Format in all cases: in vivo
[1] = system: male ICR mice; assay: MES test (anti-epilepsy activity), mice, oral (mMES po); settings: Mus musculus; for responders at 100 mg/kg: injection amount 100 mg/kg; for ED50: mice, at peak time; for responders at 50 mg/kg: injection amount 50 mg/kg
Description: (§1) Biological Experimental Example. 1: Measurement of Anti-Epilepsy Activity (MES-Test)
(§2) In the MES test (Ref., G. Villetti et al. Neuropharmacology 40(2001) 866-878), an electrical stimulus (mice: 50 mA, 60 Hz, 0.2 sec, and rats: 150 mA, 60 Hz, 0.2 sec in the test animal) supplied by an 11 A Shocker (IITC Life Science Company) was delivered through corneal electrodes. All mice or rats assigned to any electroshock at peak time were treated with each test compound sample which was dissolved in 20% tween 80 prepared by saline solvent applied orally before the test. […] Three doses of the test sample were administered orally to 9-18 animals (3-6 mice per dose) for evaluating the respective doses at which 50% of the animals were protected from seizure (ED50). The ED50 value (median effective close) was calculated by Litchfield and Wicoxon log-probit method which is a dose-response relationship. Experimental animals, male ICR mice and male SD rats, were purchased from OrientBio, Samtako, or Nara Biotech, Korea, and housed in cages (4-5 mice or 3 rats per cage) for 4-5 days. The range of mice body weight was between 19 and 25 grams and range of rats body weight was between 100 and 130 grams.
(§3) The obtained results are shown as mean±sem. The difference between the groups was statistically analyzed by ANOVA, and then further examined by Dunnett's test or Bonferroni test. If p is less than 0.05, it was determined that the difference between the groups had statistical significance.
(§4) The results of anti-epileptic activity of the sulfamate derivative compounds measured in the above Experimental Example are shown in the following Tables 4 and 5.

[2] = system: male SD rats; assay: MES test (anti-epilepsy activity), rats, oral (rMES po); settings: for ED50: Rattus norvegicus, rats, at peak time
Description: as §1, §2, §3, §4

[3] = system: Male Sprague-Dawley rats; assay: Lithium-pilocarpine induced epilepsy test (LI-PILO), prevention test, i.p.; settings: for Anti-epileptogenesis (rat/ip) Protection %: 6 rats
Description: Biological Experimental Example 2: Lithium-Pilocarpine Induced Epilepsy Test (LI-PILO Test)
Male Sprague-Dawley rats (purchased from Orient Bio Inc. Korea) of body weight 175 grams were used for these studies and 3 rats per cage were housed for 4-5 days. On the day prior to SE, rats received 127 mg/kg lithium chloride (Sigma, St. Louis, Mo., U.S.A.) intraperitoneally (i.p.). Approximately 18-20 h following this treatment, rats were given an i.p. injection of 43 mg/kg pilocarpine (Sigma). An i.p. injection of 2 mg/kg methyl-scopolamine (Sigma) was administered 30 min prior to pilocarpine to block the effects of the muscarinic agonist on peripheral cholinergic receptors. Test drugs were dissolved in 20% tween80 (Sigma).
The drugs were administered intraperitoneally (i.p.) in a volume of 2 ul/g body weight. Pharmacological effects of all of the test materials were evaluated to compare test groups (n=6) with a control group (n=6). Control group was administered vehicle only. The efficacy was measured 0.5, 1, 2, or 4 hours after the administration of the test material. The time point that the most animals were protected was defined as peak time and the ED50 was determined at peak time. The animals were then transferred to observation cages and observed continuously for 90 min. Seizure was elicited in approximately 95% of the control group. Protection was defined as complete absence of seizure grade 3˜5 (Racine scale; Racine, 1972) over the 90-min observation period. The effective dose of the compound necessary to protect 50% of the animals against seizures compared to controls (i.e. ED50) was determined by a curve fitting program (Excel 2007, Microsoft).
The results of Lithium-pilocarpine induced epilepsy test of the sulfamate derivative compounds measured in the above Experimental Example are shown in the following Tables 6.

[4] = 3 mice, read-out: mMES(po) Protection %
[5] = injection amount 150 mg/kg, 2 h
[6] = 4 mice, read-out: mMES(po) Protection %

CC1(C)O[C@@H](COS(N)(=O)=O)[C@H](c2cnc(Cl)s2)O1 [Example 166, ((4R, 5S)-5-(2-chlorothiazol-5-yl)-2,2-dimethyl-1,3-dioxolan-4-yl)methylsulfamate]
responders at 100 mg/kg [1, 4]: 100% | ED50 [2]: 1.9 mg/kg

Cc1ncsc1[C@@H]1OC(C)(C)O[C@H]1COS(N)(=O)=O [Example 168, ((4S, 5R)-2,2-dimethyl-5-(4-methylthiazol-5-yl)-1,3-dioxolan-4-yl)methylsulfamate]
responders at 100 mg/kg [1, 4]: 100% | ED50 [2]: 4.9 mg/kg

CC1(C)O[C@@H](COS(N)(=O)=O)[C@H](c2ccccc2I)O1 [Example 28, ((4S, 5S)-5-(2-iodophenyl)-2,2-dimethyl-1,3-dioxolan-4-yl)methyl sulfamate]
ED50 ([3]; ip, rat, prevention, at peak time, read-out: Anti-epileptogenesis (rat/ip) ED50(mg/kg)): 154 mg/kg | Anti-epileptogenesis (rat/ip) Peak Time ([3]; rat, prevention): 1 h | ED50 [1]: 15 mg/kg | ED50 [2]: 32.7 mg/kg

CC1(C)O[C@@H](COS(N)(=O)=O)[C@H](c2ccc(Cl)s2)O1 [Example 172, ((4S, 5R)-2,2-dimethyl-5-(5-chlorothiophen-2-yl)-1,3-dioxolan-4-yl)methylsulfamate]
ED50 [1]: 30.2 mg/kg | ED50 [2]: 4.7 mg/kg

CC1(C)O[C@@H](COS(=O)(=O)[NH][Na])[C@H](c2ccccc2N)O1 [Example 66]
ED50 [1]: 12.3 mg/kg | ED50 [2]: 11.8 mg/kg

CC1(C)O[C@H](c2ccccc2Cl)[C@@H](COS(N)(=O)=O)O1 [Example 1, ((4R,5R)-5-(2-chlorophenyl)-2,2-dimethyl-1,3-dioxolan-4-yl)methyl sulfamate]
Anti-epileptogenesis (rat/ip) Protection % [3, 5]: (50%) | Anti-epileptogenesis (rat/ip) Peak Time ([3]; rat, prevention): 2 h | ED50 [1]: 6.5 mg/kg | ED50 [2]: 1.2 mg/kg

CC1(C)O[C@@H](COS([NH-])(=O)=O)[C@H](c2ccccc2Cl)O1.[Na+] [Example 177, sodium ((((4S,5S)-5-(2-chlorophenyl)-2,2-dimethyl-1,3-dioxolan-4-yl)methoxy)sulfonyl)amide]
rMES(po) Protection % ([2]; injection amount 3.5 mg/kg, 3 rats): 3.5^a (100%)

CC1(C)O[C@@H](COS(N)(=O)=O)[C@H](c2ccccc2F)O1 [Example 16, ((4S, 5S)-5-(2-fluorophenyl)-2,2-dimethyl-1,3-dioxolan-4-yl)methyl sulfamate]
responders at 50 mg/kg [1, 4]: 100% | ED50 [2]: 7.7 mg/kg

NS(=O)(=O)OC[C@@H]1OC(=O)O[C@H]1c1ccccc1[N+](=O)[O-] [Example 90, ((4S, 5S)-5-(2-nitrophenyl)-2-oxo-1,3-dioxolan-4-yl)methyl sulfamate]
ED50 [1]: 9.2 mg/kg | ED50 [2]: 1.1 mg/kg

CC1(C)O[C@@H](COS(N)(=O)=O)[C@H](c2sc(Cl)nc2Cl)O1 [Example 164, ((4S, 5R)-5-(2,4-dichlorothiazol-5-yl)-2,2-dimethyl-1,3-dioxolan-4-yl)methyl sulfamate]
responders at 50 mg/kg [1, 4]: 100% | ED50 [2]: 13.2 mg/kg

CC1(C)OC(COS(N)(=O)=O)C(c2ccccc2Cl)O1 (mixture of isomers) [Example 4, (5-(2-chlorophenyl)-2,2-dimethyl-1,3-dioxolan-4-yl)methyl sulfamate(SR & RS mixture)]
responders at 50 mg/kg [1, 4]: 33% | ED50 [2]: 5.2 mg/kg

Cc1nc(Cl)sc1[C@H]1OC(C)(C)O[C@@H]1COS(N)(=O)=O [Example 169, ((4R, 5S)-2,2-dimethyl-5-(2-chloro-4-methylthiazol-5-yl)-1,3-dioxolan-4-yl)methylsulfamate]
responders at 30 mg/kg ([1]; injection amount 30 mg/kg, 3 mice, read-out: mMES(po) Protection %): 100% | rMES(po) Protection % ([2]; injection amount 15 mg/kg, 3 rats): 15^a (100%)

Nc1ccccc1[C@@H]1OC2(CCCC2)O[C@H]1COS(N)(=O)=O [Example 72, ((2S, 3S)-3-(2-aminophenyl)-1,4-dioxaspiro[4,4]nonan-2-yl)methyl sulfamate]
ED50 [1]: 14.2 mg/kg | ED50 [2]: 1 mg/kg

CC1(C)OC(COS(N)(=O)=O)C(c2cnc(Cl)nc2)O1 (stereo not drawn) [Example 176, (2,2-dimethyl-5-(2-chloropyrimidin-5-yl)-1,3-dioxolan-4-yl)methylsulfamate]
responders at 100 mg/kg [1, 4]: 100%

CCC1(CC)O[C@H](COS(N)(=O)=O)[C@@H](Cc2ccccc2)O1 [Example 124, ((4R, 5R)-5-benzyl-2,2-diethyl-1,3-dioxolan-4-yl)methyl sulfamate]
responders at 50 mg/kg [1, 4]: 100%

Nc1ccccc1[C@@H]1OC2(CCCCC2)O[C@H]1COS(N)(=O)=O [Example 74, ((2S, 3S)-3-(2-aminophenyl)-1,4-dioxaspiro[4,5]decan-2-yl)methyl sulfamate]
ED50 [1]: 14.5 mg/kg

Cc1nc(Cl)sc1[C@@H]1OC(C)(C)O[C@H]1COS(N)(=O)=O [Example 170, ((4S, 5R)-2,2-dimethyl-5-(2-chloro-4-methylthiazol-5-yl)-1,3-dioxolan-4-yl)methylsulfamate]
responders at 100 mg/kg [1, 4]: 100%

CCC1(CC)O[C@@H](CCOS(N)(=O)=O)[C@H](c2ccccc2)O1 [Example 132, 2-((4S, 5S)-5-phenyl-2,2-diethyl-1,3-dioxolan-4-yl)ethyl sulfamate]
responders at 80 mg/kg ([1]; injection amount 80 mg/kg, 3 mice, read-out: mMES(po) Protection %): 33.3%

CC1(C)O[C@H](c2ccccc2F)[C@@H](COS(N)(=O)=O)O1 [Example 15, ((4R, 5R)-5-(2-fluorophenyl)-2,2-dimethyl-1,3-dioxolan-4-yl)methyl sulfamate]
Anti-epileptogenesis (rat/ip) Protection % ([3]; injection amount 100 mg/kg, 1 h): (16.6%) | Anti-epileptogenesis (rat/ip) Protection % ([3]; injection amount 100 mg/kg, 2 h): (50%) | Anti-epileptogenesis (rat/ip) Protection % [3, 5]: 150^b(16.6%) | responders at 50 mg/kg [1, 6]: 100% | rMES(po) Protection % ([2]; injection amount 50 mg/kg, 6 rats): 50^b(66.6%)

CC1(C)O[C@@H](COS(N)(=O)=O)[C@H](c2ccc(Cl)cc2Cl)O1 [Example 40, ((4S, 5S)-5-(2,4-dichlorophenyl)-2,2-dimethyl-1,3-dioxolan-4-yl)methyl sulfamate]
ED50 [1]: 49.2 mg/kg

NS(=O)(=O)OC[C@@H]1OC2(CCCC2)O[C@H]1c1ccccc1 [Example 110, ((2S, 3S)-3-phenyl-1,4-dioxaspiro[4,4]nonan-2-yl)methyl sulfamate]
responders at 9 mg/kg ([1]; injection amount 9 mg/kg, 3 mice, read-out: mMES(po) Protection %): 33.3%

CCC1(CC)O[C@@H](COS(N)(=O)=O)[C@H](c2ccccc2)O1 [Example 108, ((4S, 5S)-5-phenyl-2,2-diethyl-1,3-dioxolan-4-yl)methyl sulfamate]
responders at 50 mg/kg [1, 4]: 100%

CC1(C)O[C@@H](CCOS(N)(=O)=O)[C@H](c2ccccc2)O1 [Example 130, 2-((4S, 5S)-5-phenyl-2,2-dimethyl-1,3-dioxolan-4-yl)ethyl sulfamate]
responders at 50 mg/kg [1, 4]: 33.3%

CC1(C)O[C@H](COS(N)(=O)=O)[C@@H](Cc2ccccc2Cl)O1 [Example 146, ((4R, 5R)-5-(2-chlorobenzyl)-2,2-dimethyl-1,3-dioxolan-4-yl)methyl sulfamate]
responders at 50 mg/kg [1, 4]: 66.6%

CC1(C)O[C@H](c2ccccc2I)[C@@H](COS(N)(=O)=O)O1 [Example 27, ((4R, 5R)-5-(2-iodophenyl)-2,2-dimethyl-1,3-dioxolan-4-yl)methyl sulfamate]
ED50 [1]: 27.6 mg/kg

CC1(C)O[C@H](c2sc(Cl)nc2Cl)[C@@H](COS(N)(=O)=O)O1 [Example 163, ((4R, 5S)-5-(2,4-dichlorothiazol-5-yl)-2,2-dimethyl-1,3-dioxolan-4-yl)methyl sulfamate]
responders at 50 mg/kg [1, 6]: 50% | ED50 [2]: 6.5 mg/kg

CNc1ccccc1[C@@H]1OC(C)(C)O[C@H]1COS(=O)(=O)NC [Example 104, ((4S, 5S)-5-(2-methylaminophenyl)-2,2-dimethyl-1,3-dioxolan-4-yl)methyl methylsulfamate]
responders at 50 mg/kg [1, 4]: 66.6%
